Experimental data published in patent US20060122105A1, “Method of improing the growth performance of an animal” (priority 2001, published 2006).

Tests used:
[1] = test system: Actinobacillus pleuropneumoniae (App); assay: App challenge of pigs, prophylactic recombinant IL-1ra, plasmid IL-1ra or flunix (Example 5); type: in vivo; conditions: day 13 after challenge compared with pre-challenge levels; FIG. 35
[2] = test system: Actinobacillus pleuropneumoniae (App); assay: as above; type: in vivo; design: improvements in weight gain over saline controls / reduction in weight gain compared to saline controls / reduction in clinical symptoms compared to saline / reduction of pleurisy compared to saline treated controls / reduction in affected lung mass compared to saline treated controls: concentration or dose not given beside the values
Method: Male pigs, with a mean starting weight of 52 kg, were allocated to 5 treatment groups as outlined in Table 6. Pigs were housed in group pens, with each pen containing a replicate from each of the treatment groups. The starting weights of each treatment group and each pen were equal prior to the start of the trial. Pigs were provided with pelleted feed and water ad libitum.
Recombinant IL-1ra and saline-were administered as 1 ml doses, given subcutaneously behind the ear. Plasmids were administered in 1 ml doses, given intramuscularly in the hind-leg. Flunix was administered as a 2 ml dose according to the manufacturer's instructions, and delivered intramuscularly in the neck. The timetable of administration is outlined in Table 6 below.
Prior to challenge, pigs were treated with recombinant cytokines, flunix or plasmids as described Table 7. Pigs were anaesthetised and infected intratracheally with 7.5×10^5 pfu App on day 0.
Blood was sampled from pigs by venipuncture at 0, 24 h and 14 days post-challenge. Blood was assayed for immunological parameters as previously described. Pigs were weighed weekly from delivery of plasmids and for 2 weeks after challenge.
At the conclusion of the trial, pigs were euthanased and the lungs removed for post-mortem examination. Lungs were scored for pleurisy from 0-5 (FIGS. 39 and 40) and the degree of pleuropneumonia was determined by weighing affected lung and expressed as a percentage of total lung weight (FIGS. 41 and 42). Pigs treated with flunix and IL-1ra had less pleurisy than the saline controls (FIG. 39).

Cc1c(Nc2ncccc2C(=O)O)cccc1C(F)(F)F [flunix, reference compound]
levels of TNFα protein in the serum [1]: failed to inhibit the production of TNFα | reduction in weight gain compared to saline controls ([2]; 14d App challenge, FIG. 33): 84.6% | production of IL-6 (mRNA in peripheral blood) ([2]; after App challenge, compared with saline treated controls, FIG. 36): reduce the production of IL-6 only | growth during the week of challenge ([2]; first week after App challenge, FIG. 30): weight loss | reduction in affected lung mass compared to saline treated controls ([2]; percentage of lung affected by App lesions, FIG. 42): 64.1% | reduction of pleurisy compared to saline treated controls ([2]; pleurisy score 0-5 at necropsy, FIG. 40): 55.6%
